Results published in PubChem BioAssay AID192 (DTP/NCI, 2004).
“And” between values parts separate entries of the source, which are not always exact repeats. Equal entries are not always repeated. Toxic doses and inconclusive results are not listed.

System: BDF1 mice, B16 melanoma ip, median survival T/C
Assay: NCI In Vivo Anticancer Drug Screen. Data for tumor model B16 Melanoma (intraperitoneal) in B6D2F1 (BDF1) mice
Conditions: endpoint: median survival time, higher = longer survival
Method in brief: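 Compounds were tested in mice carrying transplantable tumors. Survival or tumor size was recorded, and each value is the treated-group measurement (T) divided by that of the vehicle-treated control group (C).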

[1] = dose: 12.5 mg/kg/injection, schedule: Q01DX009 (ip), vehicle: saline with Tween-80
[2] = dose: 25.0 mg/kg/injection, schedule: Q01DX009 (ip), vehicle: saline with Tween-80
[3] = dose: 100.0 mg/kg/injection, schedule: Q01DX009 (ip), vehicle: Klucel (hydroxypropylcellulose) (HPC)
[4] = dose: 200.0 mg/kg/injection, schedule: Q01DX009 (ip), vehicle: Klucel (hydroxypropylcellulose) (HPC)
[5] = dose: 400.0 mg/kg/injection, schedule: Q01DX009 (ip), vehicle: Klucel (hydroxypropylcellulose) (HPC)
[6] = dose: 6.25 mg/kg/injection, schedule: Q01DX009 (ip), vehicle: Klucel (hydroxypropylcellulose) (HPC)
[7] = dose: 12.5 mg/kg/injection, schedule: Q01DX009 (ip), vehicle: Klucel (hydroxypropylcellulose) (HPC)
[8] = dose: 25.0 mg/kg/injection, schedule: Q01DX009 (ip), vehicle: Klucel (hydroxypropylcellulose) (HPC)

In the case of C/C=C1/C[C@@H](C)[C@@](C)(O)C(=O)OCC2=CC[N+]3([O-])CC[C@@H](OC1=O)[C@@H]23 (stereo not given in full), the T/C (dose: 10.0 mg/kg/injection, schedule: Q01DX009 (ip), vehicle: saline) is reported as 102 % of control, the T/C (dose: 20.0 mg/kg/injection, schedule: Q01DX009 (ip), vehicle: saline) is reported as 106 % of control and the T/C (dose: 40.0 mg/kg/injection, schedule: Q01DX009 (ip), vehicle: saline) is reported as 113 % of control. For the same compound, the T/C (dose: 80.0 mg/kg/injection, schedule: Q01DX009 (ip), vehicle: saline) was 102 % of control.

With O=C1C=C2C(=CCOC2O)O1 (stereo not given) the T/C (dose: 0.39 mg/kg/injection, schedule: Q01DX009 (ip), vehicle: Klucel (hydroxypropylcellulose) (HPC)) was 96 % of control, the T/C (dose: 0.75 mg/kg/injection, schedule: Q01DX009 (ip), vehicle: Klucel (hydroxypropylcellulose) (HPC)) was 106 % of control and the T/C (dose: 1.5 mg/kg/injection, schedule: Q01DX009 (ip), vehicle: Klucel (hydroxypropylcellulose) (HPC)) was 96 % of control. For the same compound, the T/C (dose: 3.0 mg/kg/injection, schedule: Q01DX009 (ip), vehicle: Klucel (hydroxypropylcellulose) (HPC)) was 86 % of control.

For Nc1ncnc2c(C3OC(CO)C(O)C3O)[nH]nc12 (stereo not given), the T/C (dose: 1.0 mg/kg/injection, schedule: Q01DX009 (ip), vehicle: saline) was 113 % of control, the T/C (dose: 2.0 mg/kg/injection, schedule: Q01DX009 (ip), vehicle: saline) was 122 % of control and the T/C (dose: 4.0 mg/kg/injection, schedule: Q01DX009 (ip), vehicle: saline) was 122 % of control. The T/C (dose: 8.0 mg/kg/injection, schedule: Q01DX009 (ip), vehicle: saline) was 107 % of control.

For CCOC(Cl)CCl (stereo not given), the T/C [1] was 97 % of control and the T/C [2] was 102 % of control.

For c1ccc(C2CCCCCC2)cc1, the T/C (dose: 6.25 mg/kg/injection, schedule: Q01DX009 (ip), vehicle: other) was 108 % of control, the T/C (dose: 12.5 mg/kg/injection, schedule: Q01DX009 (ip), vehicle: other) was 98 % of control and the T/C (dose: 25.0 mg/kg/injection, schedule: Q01DX009 (ip), vehicle: other) was 111 % of control. The T/C (dose: 50.0 mg/kg/injection, schedule: Q01DX009 (ip), vehicle: other) was 109 % of control and the T/C (dose: 100.0 mg/kg/injection, schedule: Q01DX009 (ip), vehicle: other) was 89 % of control.

With S=P(N1CC1)(N1CC1)N1CC1 the T/C (dose: 0.5 mg/kg/injection, schedule: Q01DX009 (ip), vehicle: saline) was 104 % of control, the T/C (dose: 1.0 mg/kg/injection, schedule: Q02DX009 (ip), vehicle: saline) was 106 % of control and 120 % of control and the T/C (dose: 1.5 mg/kg/injection, schedule: Q01DX009 (ip), vehicle: saline) was 110 % of control and 120 % of control. The T/C (dose: 1.5 mg/kg/injection, schedule: Q02DX009 (ip), vehicle: saline) was 112 % of control, the T/C (dose: 2.0 mg/kg/injection, schedule: Q02DX009 (ip), vehicle: saline) was 94 % of control and 111 % of control and the T/C (dose: 3.0 mg/kg/injection, schedule: Q01DX009 (ip), vehicle: saline) was 104 % of control and 111 % of control. The T/C (dose: 3.0 mg/kg/injection, schedule: Q02DX009 (ip), vehicle: saline) was 120 % of control, the T/C (dose: 4.0 mg/kg/injection, schedule: Q02DX009 (ip), vehicle: saline) was 119 % of control and 120 % of control and the T/C (dose: 6.0 mg/kg/injection, schedule: Q01DX009 (ip), vehicle: saline) was 86 % of control. For the same compound, the T/C (dose: 6.0 mg/kg/injection, schedule: Q02DX009 (ip), vehicle: saline) was 116 % of control and 117 % of control, the T/C (dose: 8.0 mg/kg/injection, schedule: Q02DX009 (ip), vehicle: saline) was 88 % of control and 122 % of control and the T/C (dose: 12.0 mg/kg/injection, schedule: Q02DX009 (ip), vehicle: saline) was 86 % of control.

For CC(=O)CC(=O)N1CCC(C)CC1, the T/C [3] was 110 % of control, the T/C [4] was 112 % of control and the T/C [5] was 115 % of control.

With COc1cccc2c1C(=O)c1c(O)c3c(c(O)c1C2=O)C[C@@](O)(C(=O)COC(=O)Cc1ccccc1)C[C@@H]3OC1CC(N)C(O)C(C)O1 (stereo not given in full) the T/C (dose: 0.5 mg/kg/injection, schedule: Q01DX009 (ip), vehicle: saline with Tween-80) was 151 % of control and 186 % of control, the T/C (dose: 1.0 mg/kg/injection, schedule: Q01DX009 (ip), vehicle: saline with Tween-80) was 165 % of control and 186 % of control and the T/C (dose: 2.0 mg/kg/injection, schedule: Q01DX009 (ip), vehicle: saline with Tween-80) was 172 % of control and 232 % of control.

COc1ccc(CSC(=S)NNc2ccccc2)cc1 was tested, and the T/C [3] was 107 % of control, the T/C [4] was 103 % of control and the T/C [5] was 106 % of control.

With NC1CCC(CCCC2CCCC2)CC1 (stereo not given) the T/C [6] was 96 % of control, the T/C [7] was 86 % of control and the T/C [8] was 89 % of control.

With O=C(O)C(CSC(c1ccccc1)(c1ccccc1)c1ccccc1)N=Cc1cccs1 (stereo not given) the T/C (dose: 12.5 mg/kg/injection, schedule: Q01DX009 (ip), vehicle: saline) was 117 % of control and the T/C (dose: 25.0 mg/kg/injection, schedule: Q01DX009 (ip), vehicle: saline) was 122 % of control.

In the case of CC(=O)CC(=O)Nc1cccc([N+](=O)[O-])c1, the T/C [8] is reported as 100 % of control and the T/C [3] is reported as 94 % of control.

For COc1ccc(CCN2CCCC2C(=O)O)cc1OC (stereo not given), the T/C (dose: 100.0 mg/kg/injection, schedule: Q04DX003 (ip), vehicle: saline) was 100 % of control, the T/C (dose: 200.0 mg/kg/injection, schedule: Q04DX003 (ip), vehicle: saline) was 105 % of control and the T/C (dose: 400.0 mg/kg/injection, schedule: Q04DX003 (ip), vehicle: saline) was 96 % of control.

For O=C(Nc1ccccc1)Nc1nccs1, the T/C [7] was 91 % of control, the T/C [8] was 93 % of control and 113 % of control and the T/C (dose: 50.0 mg/kg/injection, schedule: Q01DX009 (ip), vehicle: Klucel (hydroxypropylcellulose) (HPC)) was 98 % of control and 102 % of control. For the same compound, the T/C [3] was 93 % of control and 99 % of control and the T/C [4] was 94 % of control and 100 % of control.

COc1ccccc1NC(=O)Nc1c(C)cccc1C was tested, and the T/C (dose: 100.0 mg/kg/injection, schedule: Q01DX009 (ip), vehicle: gum acacia) was 101 % of control, the T/C (dose: 200.0 mg/kg/injection, schedule: Q01DX009 (ip), vehicle: gum acacia) was 102 % of control and the T/C (dose: 400.0 mg/kg/injection, schedule: Q01DX009 (ip), vehicle: gum acacia) was 90 % of control.

With CC(=O)OCc1c(O)c2c(c(O)c1COC(C)=O)C(=O)C=CC2=O the T/C [6] was 94 % of control, the T/C [7] was 91 % of control and the T/C [8] was 89 % of control.

In the case of CC(=O)CC(C)(C)C1CCCCC1, the T/C (dose: 12.5 mg/kg/injection, schedule: Q01DX009 (ip), vehicle: water) is reported as 107 % of control, the T/C (dose: 25.0 mg/kg/injection, schedule: Q01DX009 (ip), vehicle: water) is reported as 98 % of control and the T/C (dose: 50.0 mg/kg/injection, schedule: Q01DX009 (ip), vehicle: water) is reported as 95 % of control. For the same compound, the T/C (dose: 100.0 mg/kg/injection, schedule: Q01DX009 (ip), vehicle: water) was 102 % of control and the T/C (dose: 200.0 mg/kg/injection, schedule: Q01DX009 (ip), vehicle: water) was 88 % of control.

For COc1c(Cl)cc2c(c1OC)N(C)C1N3C(=O)C4(C)SSC3(C(=O)N4C)C(O)C21O (stereo not given), the T/C (dose: 0.12 mg/kg/injection, schedule: Q01DX009 (ip), vehicle: Klucel (hydroxypropylcellulose) (HPC)) was 103 % of control and the T/C (dose: 0.25 mg/kg/injection, schedule: Q01DX009 (ip), vehicle: Klucel (hydroxypropylcellulose) (HPC)) was 106 % of control.

In the case of CCC(C)C(NC(=O)c1ccccc1)C(=O)O (stereo not given), the T/C (dose: 6.25 mg/kg/injection, schedule: Q01DX009 (ip), vehicle: saline with Tween-80) is reported as 100 % of control, the T/C [1] is reported as 101 % of control and the T/C [2] is reported as 95 % of control. For the same compound, the T/C (dose: 50.0 mg/kg/injection, schedule: Q01DX009 (ip), vehicle: saline with Tween-80) was 90 % of control and 94 % of control.

For COc1ccc(NC(=O)Oc2c(C(C)C)cccc2C(C)C)cc1, the T/C [3] was 96 % of control, the T/C (dose: 100.0 mg/kg/injection, schedule: Q04DX003 (ip), vehicle: Klucel (hydroxypropylcellulose) (HPC)) was 110 % of control and the T/C [4] was 96 % of control. The T/C (dose: 200.0 mg/kg/injection, schedule: Q04DX003 (ip), vehicle: Klucel (hydroxypropylcellulose) (HPC)) was 103 % of control, the T/C [5] was 89 % of control and the T/C (dose: 400.0 mg/kg/injection, schedule: Q04DX003 (ip), vehicle: Klucel (hydroxypropylcellulose) (HPC)) was 103 % of control.

With CCCC(C(=O)O)C(CCC)C(=O)O (stereo not given) the T/C (dose: 100.0 mg/kg/injection, schedule: Q04DX003 (ip), vehicle: saline with Tween-80) was 97 % of control, the T/C (dose: 200.0 mg/kg/injection, schedule: Q04DX003 (ip), vehicle: saline with Tween-80) was 88 % of control and the T/C (dose: 400.0 mg/kg/injection, schedule: Q04DX003 (ip), vehicle: saline with Tween-80) was 88 % of control.

In the case of CCCCCCCC/C=C\CCCCCCCCN1CC(C(=O)[O][Pb]([CH2]C)([CH2]C)[CH2]C)CC1=O (stereo not given), the T/C (dose: 0.75 mg/kg/injection, schedule: Q01DX009 (ip), vehicle: saline with Tween-80) is reported as 107 % of control, the T/C (dose: 1.5 mg/kg/injection, schedule: Q01DX009 (ip), vehicle: saline with Tween-80) is reported as 106 % of control and the T/C (dose: 3.0 mg/kg/injection, schedule: Q01DX009 (ip), vehicle: saline with Tween-80) is reported as 102 % of control. For the same compound, the T/C (dose: 6.0 mg/kg/injection, schedule: Q01DX009 (ip), vehicle: saline with Tween-80) was 107 % of control.
